Results as given in ChEMBL document CHEMBL1153243, “Structure and property based design of factor Xa inhibitors: pyrrolidin-2-ones with monoaryl P4 motifs” (Bioorg Med Chem Lett, 2010).

Key:
Assay type in all cases: ADME, organism-based
[1] = Volume of distribution at steady state in Sprague-Dawley rat; conditions: in vivo, read-out: Vdss
[2] = Half life in Sprague-Dawley rat; conditions: in vivo
[3] = Plasma clearance in Sprague-Dawley rat
[4] = Oral bioavailability in Sprague-Dawley rat; conditions: in vivo

| Structure (SMILES) | Vd [1] [L/kg] | half-life [2] [min] | clearance [3] [mL/min/kg] | bioavailability [4] [%] |
| --- | --- | --- | --- | --- |
| C[C@H](c1ccc(N2CC[C@H](NS(=O)(=O)/C=C/c3ccc(Cl)s3)C2=O)c(F)c1)N(C)C | 0.66 | 78 | 7.5 | 54 |
| CN[C@@H](C)c1ccc(N2CC[C@H](NS(=O)(=O)c3ccc4cc(Cl)ccc4c3)C2=O)c(F)c1 | 3.3 | 900 | 3.1 | > 15 |
| C[C@@H](c1ccc(N2CC[C@H](NS(=O)(=O)/C=C/c3ccc(Cl)s3)C2=O)c(F)c1)N(C)C | 0.53 | 96 | 4.3 | 23 |
| CN[C@H](C)c1ccc(N2CC[C@H](NS(=O)(=O)c3ccc4cc(Cl)ccc4c3)C2=O)c(F)c1 | 2.4 | 1080 | 1.6 | > 10 |
| C[C@@H](c1ccc(N2CC[C@H](NS(=O)(=O)c3ccc4cc(Cl)ccc4c3)C2=O)c(F)c1)N(C)C | 1.8 | 126 | 13 | 81 |
| C[C@H](c1ccc(N2CC[C@H](NS(=O)(=O)c3ccc4cc(Cl)ccc4c3)C2=O)c(F)c1)N(C)C | 1.3 | 156 | 8 | 43 |
| CC(c1ccc(N2CC[C@H](NS(=O)(=O)c3cc4ccc(Cl)cc4s3)C2=O)c(F)c1)N(C)C (stereo partly drawn) | 0.52 | 186 | 2.1 | 10 |
